Laboratory results published in PubChem BioAssay AID258 (DTP/NCI, 2004).
Toxic doses and inconclusive results are not listed.

System: CD2F1 mice, L1210 leukemia sc, survival T/C
Assay: NCI In Vivo Anticancer Drug Screen. Data for tumor model L1210 Leukemia (subcutaneous) in CD2F1 (CDF1) mice
Conditions: endpoint: median survival time, higher = longer survival
How it was run: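 Read-out: survival or tumor size. Value = treated (T) / vehicle control (C). Transplantable tumor in mice.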

[1] = dose: 5.0 mg/kg/injection, schedule: Q01DX Z (sc), vehicle: water
[2] = dose: 8.4 mg/kg/injection, schedule: Q01DX Z (sc), vehicle: water
[3] = dose: 14.0 mg/kg/injection, schedule: Q01DX Z (sc), vehicle: water
[4] = dose: 23.0 mg/kg/injection, schedule: Q01DX Z (sc), vehicle: water
[5] = dose: 39.0 mg/kg/injection, schedule: Q01DX Z (sc), vehicle: water
[6] = dose: 65.0 mg/kg/injection, schedule: Q01DX Z (sc), vehicle: water
[7] = dose: 108.0 mg/kg/injection, schedule: Q01DX Z (sc), vehicle: water
[8] = dose: 180.0 mg/kg/injection, schedule: Q01DX Z (sc), vehicle: water

O=C(Nc1ccc(C2=NCCN2)cc1)c1cccc(C(=O)Nc2ccc(C3=NCCN3)cc2)c1
T/C (dose: 2.0 mg/kg/injection, schedule: Q01DX Z (iv), vehicle: water): 100 % of control | T/C (dose: 3.0 mg/kg/injection, schedule: Q01DX Z (sc), vehicle: methylcellulose (MC)): 100 % of control | T/C (dose: 4.0 mg/kg/injection, schedule: Q01DX Z (iv), vehicle: water): 111 % of control | T/C (dose: 5.0 mg/kg/injection, schedule: Q01DX Z (sc), vehicle: methylcellulose (MC)): 100 % of control | T/C [1]: 111 % of control | T/C (dose: 8.0 mg/kg/injection, schedule: Q01DX Z (iv), vehicle: water): 161 % of control | T/C (dose: 8.0 mg/kg/injection, schedule: Q01DX Z (sc), vehicle: water): 183 % of control | T/C (dose: 8.4 mg/kg/injection, schedule: Q01DX Z (sc), vehicle: methylcellulose (MC)): 111 % of control | T/C [2]: 200 % of control | T/C [3]: 250 % of control | T/C (dose: 16.0 mg/kg/injection, schedule: Q01DX Z (sc), vehicle: water): 277 % of control | T/C (dose: 23.0 mg/kg/injection, schedule: Q01DX Z (sc), vehicle: methylcellulose (MC)): 222 % of control | T/C [4]: 283 % of control | T/C (dose: 32.0 mg/kg/injection, schedule: Q01DX Z (sc), vehicle: water): 305 % of control | T/C (dose: 39.0 mg/kg/injection, schedule: Q01DX Z (sc), vehicle: methylcellulose (MC)): 161 % of control | T/C [5]: 266 % of control | T/C (dose: 64.0 mg/kg/injection, schedule: Q01DX Z (sc), vehicle: water): 283 % of control | T/C (dose: 65.0 mg/kg/injection, schedule: Q01DX Z (sc), vehicle: methylcellulose (MC)): 177 % of control | T/C [6]: 266 % of control | T/C (dose: 128.0 mg/kg/injection, schedule: Q01DX Z (sc), vehicle: water): 283 % of control

Cc1cccnc1
T/C [7]: 100 % of control | T/C [8]: 100 % of control

CC1CN=C(c2ccc(NC(=O)c3ccc(C(=O)Nc4ccc(C5=NCC(C)N5)cc4)cc3)cc2)N1 (stereo not given)
T/C (dose: 1.8 mg/kg/injection, schedule: Q01DX Z (sc), vehicle: water): 115 % of control | T/C (dose: 3.0 mg/kg/injection, schedule: Q01DX Z (sc), vehicle: water): 155 % of control | T/C [1]: 240 % of control | T/C [2]: 255 % of control | T/C [3]: 230 % of control

O=C(CCBr)N1CCN(C(=O)CCBr)CC1
T/C (dose: 28.0 mg/kg/injection, schedule: Q01DX Z (sc), vehicle: methylcellulose (MC)): 111 % of control | T/C (dose: 47.0 mg/kg/injection, schedule: Q01DX Z (sc), vehicle: methylcellulose (MC)): 111 % of control | T/C (dose: 78.0 mg/kg/injection, schedule: Q01DX Z (sc), vehicle: methylcellulose (MC)): 122 % of control | T/C (dose: 360.0 mg/kg/injection, schedule: Q01DX Z (sc), vehicle: methylcellulose (MC)): 122 % of control

CO[C@H](/C(C)=C/C=C/C(C)=C/c1coc(C)n1)[C@H](C)[C@H]1C[C@@H](O)[C@@]2(C)O[C@H]2/C=C/[C@@H](C)[C@@H]2C[C@@H](CC(=O)O2)C[C@H]2O[C@@H]2C(=O)O1
T/C (dose: 0.25 mg/kg/injection, schedule: Q01DX009 (ip), vehicle: Klucel (hydroxypropylcellulose) (HPC)): 107 % of control | T/C (dose: 1.0 mg/kg/injection, schedule: Q01DX009 (ip), vehicle: Klucel (hydroxypropylcellulose) (HPC)): 119 % of control

CC(C)CCNc1ncnc2c1cnn2C
T/C [4]: 100 % of control | T/C [5]: 100 % of control | T/C [6]: 100 % of control | T/C [7]: 109 % of control | T/C [8]: 100 % of control

OCC1OC(n2cnc3c(=S)nc[nH]c32)C(O)C1O (stereo not given)
T/C (dose: 130.0 mg/kg/injection, schedule: Q01DX Z (sc), vehicle: other): 177 % of control | T/C (dose: 216.0 mg/kg/injection, schedule: Q01DX Z (sc), vehicle: other): 183 % of control | T/C (dose: 360.0 mg/kg/injection, schedule: Q01DX Z (sc), vehicle: other): 177 % of control

CCOC(=O)NP(=O)(N1CC1)N1CC1
T/C [3]: 172 % of control | T/C [4]: 161 % of control

CCOC1=C(N2CC2)C(=O)C(OCC)=C(N2CC2)C1=O
T/C (dose: 3.0 mg/kg/injection, schedule: Q01DX Z (sc), vehicle: carboxymethylcellulose (CMC)): 113 % of control | T/C (dose: 5.0 mg/kg/injection, schedule: Q01DX Z (sc), vehicle: carboxymethylcellulose (CMC)): 118 % of control | T/C (dose: 8.4 mg/kg/injection, schedule: Q01DX Z (sc), vehicle: carboxymethylcellulose (CMC)): 113 % of control | T/C (dose: 14.0 mg/kg/injection, schedule: Q01DX Z (sc), vehicle: carboxymethylcellulose (CMC)): 109 % of control | T/C (dose: 23.0 mg/kg/injection, schedule: Q01DX Z (sc), vehicle: carboxymethylcellulose (CMC)): 100 % of control

CN1CCN(c2ccc3nc(-c4ccc5nc(-c6ccc(O)cc6)[nH]c5c4)[nH]c3c2)CC1
T/C (dose: 4.7 mg/kg/injection, schedule: Q03HX024 (ip), vehicle: saline): 102 % of control | T/C (dose: 9.4 mg/kg/injection, schedule: Q03HX024 (ip), vehicle: saline): 107 % of control | T/C (dose: 14.0 mg/kg/injection, schedule: Q03HX008 (ip), vehicle: saline): 102 % of control | T/C (dose: 18.75 mg/kg/injection, schedule: Q03HX024 (ip), vehicle: saline): 110 % of control | T/C (dose: 28.0 mg/kg/injection, schedule: Q03HX008 (ip), vehicle: saline): 113 % of control | T/C (dose: 37.5 mg/kg/injection, schedule: Q03HX024 (ip), vehicle: saline): 119 % of control | T/C (dose: 37.5 mg/kg/injection, schedule: Q04DX003 (ip), vehicle: saline): 101 % of control | T/C (dose: 75.0 mg/kg/injection, schedule: Q04DX003 (ip), vehicle: saline): 107 % of control | T/C (dose: 112.0 mg/kg/injection, schedule: Q01DX001 (ip), vehicle: suspension in saline): 104 % of control | T/C (dose: 150.0 mg/kg/injection, schedule: Q04DX003 (ip), vehicle: saline): 110 % of control

NCCCN=c1ccc2c3c1c(O)c1c(O)ccc(=O)c1c3[nH]n2CCNCCO
T/C (dose: 0.8 mg/kg/injection, schedule: Q03HX024 (ip), vehicle: saline): 118 % of control | T/C (dose: 2.2 mg/kg/injection, schedule: Q03HX024 (ip), vehicle: saline): 161 % of control | T/C (dose: 2.34 mg/kg/injection, schedule: Q03HX008 (ip), vehicle: saline): 124 % of control | T/C (dose: 3.46 mg/kg/injection, schedule: Q01DX009 (ip), vehicle: water): 114 % of control | T/C (dose: 3.6 mg/kg/injection, schedule: Q03HX024 (ip), vehicle: saline): 212 % of control | T/C (dose: 3.7 mg/kg/injection, schedule: Q01DX005 (ip), vehicle: saline): 121 % of control | T/C (dose: 3.7 mg/kg/injection, schedule: Q04DX003 (ip), vehicle: saline): 115 % of control | T/C (dose: 5.7 mg/kg/injection, schedule: Q01DX009 (ip), vehicle: water): 121 % of control | T/C (dose: 6.2 mg/kg/injection, schedule: Q04DX003 (ip), vehicle: saline): 110 % of control | T/C (dose: 6.4 mg/kg/injection, schedule: Q03HX008 (ip), vehicle: saline): 175 % of control | T/C (dose: 9.6 mg/kg/injection, schedule: Q01DX009 (ip), vehicle: saline): 207 % of control | T/C (dose: 10.4 mg/kg/injection, schedule: Q01DX005 (ip), vehicle: saline): 182 % of control | T/C (dose: 10.4 mg/kg/injection, schedule: Q03HX008 (ip), vehicle: saline): 86 % of control | T/C (dose: 11.2 mg/kg/injection, schedule: Q01DX001 (ip), vehicle: saline): 120 % of control | T/C (dose: 16.0 mg/kg/injection, schedule: Q01DX009 (ip), vehicle: saline): 121 % of control | T/C (dose: 16.0 mg/kg/injection, schedule: Q01DX009 (ip), vehicle: water): 208 % of control | T/C (dose: 17.3 mg/kg/injection, schedule: Q01DX005 (ip), vehicle: saline): 215 % of control | T/C (dose: 17.3 mg/kg/injection, schedule: Q04DX003 (ip), vehicle: saline): 153 % of control | T/C (dose: 18.7 mg/kg/injection, schedule: Q01DX001 (ip), vehicle: saline): 119 % of control | T/C (dose: 26.7 mg/kg/injection, schedule: Q01DX009 (ip), vehicle: saline): 95 % of control | T/C (dose: 26.7 mg/kg/injection, schedule: Q01DX009 (ip), vehicle: water): 96 % of control | T/C (dose: 28.8 mg/kg/injection, schedule: Q01DX005 (ip), vehicle: saline): 107 % of control | T/C (dose: 28.8 mg/kg/injection, schedule: Q04DX003 (ip), vehicle: saline): 182 % of control | T/C (dose: 48.0 mg/kg/injection, schedule: Q04DX003 (ip), vehicle: saline): 268 % of control | T/C (dose: 51.3 mg/kg/injection, schedule: Q01DX001 (ip), vehicle: saline): 153 % of control | T/C (dose: 80.0 mg/kg/injection, schedule: Q04DX003 (ip), vehicle: saline): 118 % of control | T/C (dose: 86.4 mg/kg/injection, schedule: Q01DX001 (ip), vehicle: saline): 225 % of control
